In US12060347B2 (BRISTOL-MYERS SQUIBB COMPANY, priority 2016, dated 2024) one finds IC50 data, which are given here for 23 molecules.

The target of the test is T1, human PAR4 (Homo sapiens, UniProt Q96RI0).
T1 construct: expressed in transfected cells; host or cells: HEK293 PAR4 Clone 1.2A (BMS Arctic ID 383940)
T1 sequence (Q96RI0 18-385): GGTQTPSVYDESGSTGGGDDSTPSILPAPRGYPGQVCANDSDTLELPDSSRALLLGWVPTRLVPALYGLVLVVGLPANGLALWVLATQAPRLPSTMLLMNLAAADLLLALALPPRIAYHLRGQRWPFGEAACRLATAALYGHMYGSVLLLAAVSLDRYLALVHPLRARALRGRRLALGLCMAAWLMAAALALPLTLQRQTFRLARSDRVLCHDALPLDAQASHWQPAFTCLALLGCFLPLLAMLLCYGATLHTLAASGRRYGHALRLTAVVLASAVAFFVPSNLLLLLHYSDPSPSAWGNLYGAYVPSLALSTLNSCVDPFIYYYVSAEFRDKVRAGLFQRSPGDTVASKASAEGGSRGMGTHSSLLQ
The test is described as follows: PAR4 FLIPR assay: antagonism of agonist-peptide-induced calcium mobilization in PAR4-expressing HEK293 cells. It is filed as cell-based. As to conditions: H-Ala-Phe(4-F)-[…]NH2-induced intracellular calcium mobilization, 11-point curves. A general note: A change in cytosolic calcium serves as a functional read-out for many receptors and channels.

As a reminder, the IC50 is the concentration needed to halve the response being measured.

Molecules are shown by their SMILES.

Turning to `COCc1cnc2c(-c3nc4c(F)c(F)c(OCCNS(=O)(=O)c5cccc(F)c5)cc4s3)cc(C)cc2n1` [Example 317, N-(2-((4,5-difluoro-2-(2-(methoxymethyl)-7-methylquinoxalin-5-yl)benzo[d]thiazol-6-yl)oxy)ethyl)-3-fluorobenzenesulfonamide], the IC50 was 4.5 nM.
For `COc1cnc2c(-c3nc4c(Cl)c(F)c(OCCO)cc4s3)cc(C)cc2n1` [Example 318, 2-((4-chloro-5-fluoro-2-(2-methoxy-7-methylquinoxalin-5-yl)benzo[d]thiazol-6-yl)oxy)ethanol], the IC50 turned out to be 7.8 nM.
Take `COCc1cnc2c(-c3nc4c(C)c(C)c(OCC(C)(C)O)cc4s3)cc(C)cc2n1` [Example 319, 1-((2-(2-(methoxymethyl)-7-methylquinoxalin-5-yl)-4,5-dimethylbenzo[d]thiazol-6-yl)oxy)-2-methylpropan-2-ol]: the IC50 amounted to 7.3 nM.
With `COCc1cnc2c(-c3nc4c(C)c(C)c(OCCOC(=O)OC)cc4s3)cc(C)cc2n1` [Example 320, 2-((2-(2-(methoxymethyl)-7-methylquinoxalin-5-yl)-4,5-dimethylbenzo[d]thiazol-6-yl)oxy)ethyl methyl carbonate], the IC50 came to 3.4 nM.
Regarding `COc1cnc2c(-c3nc4c(Cl)c(F)c(OCC(=O)N5CCOCC5)cc4s3)cc(C)cc2n1` [Example 324, 2-((4-chloro-5-fluoro-2-(2-methoxy-7-methylquinoxalin-5-yl)benzo[d]thiazol-6-yl)oxy)-1-morpholinoethanone], the IC50 is 42 nM.
Regarding `[2H]C([2H])(O)c1c(C)c(OC)cc2sc(-c3cc(C)cc4nc(COC)cnc34)nc12` [Example 325], the IC50 was 0.7 nM.
In the case of `COCc1cnc2c(-c3nc4c(C(C)O)c(C)c(OC)cc4s3)cc(C)cc2n1` (centres unmarked) [Example 326, 1-(6-methoxy-2-(2-(methoxymethyl)-7-methylquinoxalin-5-yl)-5-methylbenzo[d]thiazol-4-yl)ethanol] it was 1.1 nM; in that of `COCc1cnc2c(-c3nc4c(Cl)c(C)c(OCCO)cc4s3)cc(C)cc2n1` [Example 327, 2-((4-chloro-2-(2-(methoxymethyl)-7-methylquinoxalin-5-yl)-5-methylbenzo[d]thiazol-6-yl)oxy)ethanol], 5.2 nM.
Turning to `COCc1cnc2c(-c3nc4cc(F)c(OC(C)C)cc4s3)cc(C)cc2n1` [Example 329, 5-fluoro-6-isopropoxy-2-(2-(methoxymethyl)-7-methylquinoxalin-5-yl)benzo[d]thiazole], the IC50 came to 1.1 nM.
The same measure for `COc1cnc2c(-c3nc4c(Cl)c(F)c(OCCNS(=O)(=O)c5ccccc5)cc4s3)cc(C)cc2n1` [Example 330, N-(2-((4-chloro-5-fluoro-2-(2-methoxy-7-methylquinoxalin-5-yl)benzo[d]thiazol-6-yl)oxy)ethyl)benzenesulfonamide]: 57 nM.
For `COc1cnc2c(-c3nc4c(Cl)c(F)c(OCCOC(=O)Nc5cccnc5)cc4s3)cc(C)cc2n1` [Example 331, 2-((4-chloro-5-fluoro-2-(2-methoxy-7-methylquinoxalin-5-yl)benzo[d]thiazol-6-yl)oxy)ethyl pyridin-3-ylcarbamate], the IC50 was determined as 9.2 nM.
For `COc1ccc(NC(=O)OCCOc2cc3sc(-c4cc(C)cc5nc(OC)cnc45)nc3c(Cl)c2F)cn1` [Example 332, 2((4-chloro-5-fluoro-2-(2-methoxy-7-methylquinoxalin-5-yl)benzo[d]thiazol-6-yl)oxy)ethyl (6-methoxypyridin-3-yl)carbamate], the concentration for half-maximal inhibition (IC50) was determined as 2.4 nM.
As for `COc1cnc2c(-c3nc4c(Cl)c(F)c(OCCOC(=O)Nc5ccc6[nH]c(=O)oc6c5)cc4s3)cc(C)cc2n1` [Example 333, 2((4-chloro-5-fluoro-2-(2-methoxy-7-methylquinoxalin-5-yl)benzo[d]thiazol-6-yl)oxy)ethyl (2-oxo-2,3-dihydrobenzo[d]oxazol-6-yl)carbamate], the 50% inhibitory concentration (IC50) was found to be 1.7 nM.
Regarding `COc1cnc2c(-c3nc4c(Cl)c(F)c(OCCOC(=O)NCC(F)(F)F)cc4s3)cc(C)cc2n1` [Example 334, 2((4-chloro-5-fluoro-2-(2-methoxy-7-methylquinoxalin-5-yl)benzo[d]thiazol-6-yl)oxy)ethyl (2,2,2-trifluoroethyl)carbamate], the IC50 is 29 nM.
As to `COc1cnc2c(-c3nc4c(Cl)c(F)c(OCCOC(=O)Nc5ccncc5)cc4s3)cc(C)cc2n1` [Example 335, 2((4-chloro-5-fluoro-2-(2-methoxy-7-methylquinoxalin-5-yl)benzo[d]thiazol-6-yl)oxy)ethyl pyridin-4-ylcarbamate], the IC50 was 2.5 nM.
Turning to `COc1cnc2c(-c3nc4c(Cl)c(F)c(OCCOC(=O)Nc5ccnc(C)c5)cc4s3)cc(C)cc2n1` [Example 336, 2((4-chloro-5-fluoro-2-(2-methoxy-7-methylquinoxalin-5-yl)benzo[d]thiazol-6-yl)oxy)ethyl (2-methylpyridin-4-yl)carbamate], the IC50 was found to be 5.5 nM.
`COc1cnc2c(-c3nc4c(Cl)c(F)c(OCCOC(=O)Nc5cncc(F)c5)cc4s3)cc(C)cc2n1` [Example 337, 2((4-chloro-5-fluoro-2-(2-methoxy-7-methylquinoxalin-5-yl)benzo[d]thiazol-6-yl)oxy)ethyl (5-fluoropyridin-3-yl)carbamate]: the IC50 came out at 0.7 nM.
Consider `COc1cnc2c(-c3nc4c(Cl)c(F)c(OCCOC(=O)Nc5ccc(-n6cnc(C)n6)nc5)cc4s3)cc(C)cc2n1` [Example 338, 2((4-chloro-5-fluoro-2-(2-methoxy-7-methylquinoxalin-5-yl)benzo[d]thiazol-6-yl)oxy)ethyl (6-(3-methyl-1H-1,2,4-triazol-1-yl)pyridin-3-yl)carbamate], for which the IC50 was found to be 2 nM.
With `COc1cnc2c(-c3nc4cc(F)c(OCCOC(=O)Nc5cccnc5)cc4s3)cc(C)cc2n1` [Example 339, 2-((5-fluoro-2-(2-methoxy-7-methylquinoxalin-5-yl)benzo[d]thiazol-6-yl)oxy)ethyl pyridin-3-ylcarbamate], the IC50 was 1.6 nM.
The same measure for `COc1cnc2c(-c3nc4cc(F)c(OCCOC(=O)Nc5ccc(F)nc5)cc4s3)cc(C)cc2n1` [Example 340, 2-((5-fluoro-2-(2-methoxy-7-methylquinoxalin-5-yl)benzo[d]thiazol-6-yl)oxy)ethyl (6-fluoropyridin-3-yl)carbamate]: 1.5 nM.
In the case of `COc1ccc(NC(=O)OCCOc2cc3sc(-c4cc(C)cc5nc(OC)cnc45)nc3cc2F)cn1` [Example 341, 2-((5-fluoro-2-(2-methoxy-7-methylquinoxalin-5-yl)benzo[d]thiazol-6-yl)oxy) ethyl (6-methoxypyridin-3-yl)carbamate], the half-maximal inhibitory concentration (IC50) came out at 15 nM.
Regarding `COc1cnc2c(-c3nc4cc(F)c(OCCOC(=O)Nc5ccncc5)cc4s3)cc(C)cc2n1` [Example 342, 2-((5-fluoro-2-(2-methoxy-7-methylquinoxalin-5-yl)benzo[d]thiazol-6-yl)oxy)ethyl pyridin-4-ylcarbamate], the IC50 is 11 nM.
As to `COc1cnc2c(-c3nc4cc(F)c(OCCOC(=O)Nc5ccc6[nH]c(=O)oc6c5)cc4s3)cc(C)cc2n1` [Example 343, 2-((5-fluoro-2-(2-methoxy-7-methylquinoxalin-5-yl)benzo[d]thiazol-6-yl)oxy)ethyl (2-oxo-2,3-dihydrobenzo[d]oxazol-6-yl)carbamate], the IC50 came out at 0.7 nM.
